# Measured values published in US11744802B2, “Therapeutic compositions for treatment of human immunodeficiency virus” (Gilead Sciences, Inc., priority 2015, dated 2023).
# Read-outs that look alike come from different tables or passages of the source.
# How the values were obtained:
# [1] = Food effect on single dose Compound of Formula I 100 mg single agent tablet (8 subjects); assay type: in vivo, human; conditions: for AUC(0-inf) / AUC(0-t) / Cmax: human, plasma, oral, 100 mg, mean, Compound of Formula I 100 mg single agent tablet, n = 8
# Description: In this study, a single dose of the compound of Formula I was administered in two periods with fixed sequence under fasted and fed conditions respectively. A washout of at least five half-lives was required between fasted and fed sequences.
# Subjects continued to fast until 4 hours post dose or until collection of the 4-hour postdose blood sample.
# The 90% CI for the geometric least square mean (GLSM) ratios for fast versus fed was constructed. The statistical comparison of the pharmacokinetic parameters of the compound of Formula 1 following single dose administration of this tablet formulation in fed and fasted states is presented in the table below.
# [2] = Physicochemical properties of the active ingredients (pKa, pH-dependent solubility and stability, BCS class); conditions: for pH of maximum solubility: pH-dependent solubility
# [3] = Pharmacokinetic study cohort 2 (bilayer tablet F7 vs F1 + F3; food effect on F7); conditions: for AUCinf, Mean (% CV) / Cmax, Mean (% CV) / AUClast, Mean (% CV): plasma;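 for all read-outs here: plasma PK parameters per analyte summarized descriptively, with GLSM ratios derived from mixed-effects ANOVA on ln-transformed values (treatment as fixed effect, subject as random effect)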
# Description: (§1) The pharmacokinetic study of Example 3 was continued with a second treatment group (cohort) to assess the pharmacokinetic profile of formulation F7 of Example 7 compared with that of formulation F2.
# (§2) The following plasma pharmacokinetic parameters were calculated: AUClast, AUCinf, % AUCexp, Cmax, Clast, Tmax, Tlast, CL/F, Vz/F, and t1/2.
# (§3) Pharmacokinetics: Individual subject concentration data and individual subject PK parameters for each analyte (compound of Formula 1, FTC, and TAF) were listed and summarized using descriptive statistics by treatment group (cohort) and treatment. Summary statistics were determined for both individual subject concentration data by time point, cohort, and treatment and individual subject PK parameters by cohort and treatment. Also, the geometric mean, 95% confidence interval (CI), and the mean, and standard deviation (SD) of the natural log-transformed values were presented for individual subject PK parameter data. The sample size for each time point was based on the number of subjects with nonmissing concentration data at that time point. The number of subjects with concentration below the level of quantitation (BLQ) was presented for each time point.
# (§4) Statistical comparisons of the natural log-transformed PK parameters for each analyte and treatment comparison of interest were performed. The statistical modelling was based on the PK Analysis set for the analyte under evaluation. For each analyte, all subjects with available data for the PK parameter under evaluation were included in the modelling. The statistical comparisons using Treatment A as a reference only used data from this cohort, not from the earlier cohort of Example 3 (i.e., Treatment A was not pooled).
# (§5) For each analyte and each PK parameter, a parametric (normal theory) mixed-effects ANOVA model was fitted to the natural log-transformed values of the PK parameter under evaluation. The statistical model included treatment as a fixed effect and subject as a random effect.
# [4] = Relative bioavailability and food-effect crossover study, cohort 1 (bilayer tablet F2 vs F1 co-administered with F3); conditions: for AUC(0-inf): AUCinf; for AUC(0-t): AUClast
# Description: Studies were carried out to assess the pharmacokinetic profiles of the formulations F1, F2, and F3 of Examples 1, 2, and 2A. A randomized, open-label, multiple-period, fixed-sequence, crossover study was performed to evaluate the relative bioavailability of bilayer tablet formulation F2 compared with that of single agent tablet formulation F1 co-administered simultaneously with a fixed-dose combination tablet containing emtricitabine and tenofovir alafenamide (tablet formulation F3). The bioavailability was evaluated in healthy subjects.
# The following plasma pharmacokinetic parameters were calculated: Cmax, AUClast, and AUCinf.
# Pharmacokinetics: Plasma concentrations and PK parameters were listed and summarized by analyte and treatment group using descriptive statistics. In addition, a parametric analysis of variance using a mixed-effects model appropriate for a crossover design was fitted to the natural logarithmic transformation of the PK parameters (AUCinf, AUClast, and Cmax).
# [5] = in vivo
# Description: as §1, §2, §3, §4, §5
# [6] = 100 mg single dose, high-calorie/high-fat breakfast
# [7] = F7 (50/200/25 mg), high fat meal, N = 27
# [8] = F7 (50/200/25 mg), moderate fat meal, N = 27
# [9] = Formulation F1 + F3 (75 mg + F/TAF 200/25 mg), fasted, Reference, N = 28, cohort 2
# [10] = human, plasma, oral, mean, F2 Compound of Formula I/F/TAF (75/200/25 mg), high-fat meal, Test, N = 28
# [11] = human, plasma, oral, plasma, mean, F1 Compound of Formula I (75 mg) + F3 F/TAF (200/25 mg) co-administered, fasted, Reference, N = 28, cohort 1
# [12] = Test F7 (50/200/25 mg) / Reference F1 + F3, fasted
# [13] = F2 (75/200/25 mg) high-fat meal / fasted
# [14] = Test F2 (75/200/25 mg) / Reference F1 + F3, fasted
# [15] = human, in vivo, plasma, mean, F1 Compound of Formula I (75 mg) + F3 F/TAF (200/25 mg) co-administered, fasted, Reference, N = 28, cohort 1
# [16] = human, in vivo, plasma, mean, F2 Compound of Formula I/F/TAF (75/200/25 mg), high-fat meal, Test, N = 28
# [17] = human, in vivo, plasma, mean, bilayer tablet F2 Compound of Formula I/F/TAF (75/200/25 mg), single dose, fasted, N = 28
structure (smiles),measurement,setting,value
"O=C(NCc1c(F)cc(F)cc1F)c1cn2c(c(O)c1=O)C(=O)N1[C@H]3CC[C@H](C3)O[C@@H]1C2 [Compound of Formula I, (2R,5S,13aR)-8-hydroxy-7,9-dioxo-N-(2,4,6-trifluorobenzyl)-2,3,4,5,7,9,13,13a-octahydro-2,5-methanopyrido[1′,2′:4,5]pyrazino[2,1-b][1,3]oxazepine-10-carboxamide]",changes in clearance and t1/2 following administration with food,[1]; 100 mg single dose,no apparent changes
same,increase of GLSM value of AUCinf with food,[1]; [6],84%
same,increase of GLSM value of Cmax with food,[1]; [6],101%
same,AUC(0-inf),[1]; Fasted,118 µg·h/mL
same,AUC(0-t),[1]; Fasted,116 µg·h/mL
same,Cmax,[1]; Fasted,5880 ng/mL
same,AUC(0-inf),[1]; Fed (high-fat breakfast),214 µg·h/mL
same,AUC(0-t),[1]; Fed (high-fat breakfast),209 µg·h/mL
same,Cmax,[1]; Fed (high-fat breakfast),11300 ng/mL
same,BCS class,[2],BCS Class 2
same,pH of maximum chemical stability,[2],4
same,pKa,[2],8.6
same,solubility (BCS classification),[2],low solubility
same,pH of maximum solubility,[2],10.5
same,exposure in Formulation F7 compared with Formulation F2,[3]; 50 mg vs 75 mg dose,proportionally lower
same,"AUCinf, Mean (% CV)",[3]; [7],"140,032.4 (21.8) hr · ng/mL"
same,"Cmax, Mean (% CV)",[3]; [7],5936.3 (18.3) ng/mL
same,"AUCinf, Mean (% CV)",[3]; [8],"140,197.7 (23.6) hr · ng/mL"
same,"Cmax, Mean (% CV)",[3]; [8],6279.6 (18.3) ng/mL
same,"AUCinf, Mean (% CV)",[3]; [9],"146,931.6 (31.1) hr · ng/mL"
same,"Cmax, Mean (% CV)",[3]; [9],6791.1 (26.4) ng/mL
same,AUCinf higher with high-fat meal than fasted,[3]; tablet formulation F7,24%
same,AUCinf higher with moderate fat meal than fasted,[3]; tablet formulation F7,24%
same,Cmax higher with high-fat meal than fasted,[3]; tablet formulation F7,13%
same,Cmax higher with moderate fat meal than fasted,[3]; tablet formulation F7,20%
same,AUCinf higher after F2 than after F1 with F3,[4]; fasted,27%
same,Cmax higher after F2 than after F1 with F3,[4]; fasted,31%
same,total exposure higher in F2 than in F1 co-dosed with F3,[4]; fasted,approximately 30%
same,AUC(0-inf),[4]; [10],226 µg·h/mL
same,AUC(0-inf),[4]; [11],123 µg·h/mL
same,AUC(0-t),[4]; [10],217 µg·h/mL
same,AUC(0-t),"[4]; human, plasma, oral, mean, bilayer tablet F2 Compound of Formula I/F/TAF (75/200/25 mg), single dose, fasted, N = 28",152 µg·h/mL
same,AUC(0-t),[4]; [11],120 µg·h/mL
same,Cmax,[4]; [11],5590 ng/mL
same,AUCinf,"[4]; plasma, mean, bilayer tablet F2 Compound of Formula I/F/TAF (75/200/25 mg), single dose, fasted, N = 28","156,637.5 h · ng/mL"
same,AUCinf higher with high-fat meal than fasted,[4]; tablet formulation F2,46%
same,Cmax higher with high-fat meal than fasted,[4]; tablet formulation F2,27%
"Nc1nc(=O)n([C@@H]2CS[C@H](CO)O2)cc1F [Emtricitabine, 4-amino-5-fluoro-1-[(2R,5S)-2-(hydroxymethyl)-1,3-oxathiolan-5-yl]-1,2-dihydropyrimidin-2-one]",BCS class,[2],BCS Class 1
same,pKa,[2],2.65
same,solubility (BCS classification),[2],high solubility
same,geometric mean ratio of AUCinf (food effect),"[4]; human, in vivo",1.00
same,geometric mean ratio of Cmax (food effect),"[4]; human, in vivo",0.83
same,exposure following F2 compared with F1 with the F/TAF FDC (F3),[4]; in vivo,similar
same,exposure of Formulation F7 compared with coadministered reference tablets,[5],similar
CC(C)OC(=O)[C@H](C)N[P@](=O)(CO[C@H](C)Cn1cnc2c(N)ncnc21)Oc1ccccc1 [Tenofovir alafenamide],BCS class,[2],BCS Class 3
same,pKa,[2],3.9
same,solubility (BCS classification),[2],high equilibrium solubility
same,permeability (BCS classification),[2]; not told,lower apparent permeability
same,pH of maximum solubility,[2],~3
same,% GLSM Ratio (90% CI) of AUCinf,[3]; F7 high fat meal / fasted,"166.55 (146.54, 189.29) %"
same,% GLSM Ratio (90% CI) of AUClast,[3]; F7 high fat meal / fasted,"162.62 (143.10, 184.80) %"
same,% GLSM Ratio (90% CI) of Cmax,[3]; F7 high fat meal / fasted,"91.71 (73.46, 114.49) %"
same,% GLSM Ratio (90% CI) of AUCinf,[3]; F7 moderate fat meal / fasted,"148.23 (130.42, 168.47) %"
same,% GLSM Ratio (90% CI) of AUClast,[3]; F7 moderate fat meal / fasted,"148.20 (130.41, 168.41) %"
same,% GLSM Ratio (90% CI) of Cmax,[3]; F7 moderate fat meal / fasted,"99.04 (79.33, 123.65) %"
same,% GLSM Ratio (90% CI) of AUCinf,[3]; [12],"85.48 (75.33, 97.00) %"
same,% GLSM Ratio (90% CI) of AUClast,[3]; [12],"85.37 (75.24, 96.85) %"
same,% GLSM Ratio (90% CI) of Cmax,[3]; [12],"84.17 (67.59, 104.81) %"
same,Cmax lower for Formulation F7 than for the coadministered reference tablets,[3]; fasted,approximately 16%
same,exposure of Formulation F7 compared with coadministered reference tablets,[3]; fasted,similar
same,"AUCinf, Mean (% CV)",[3]; [7],318.4 (32.8) hr · ng/mL
same,"AUClast, Mean (% CV)",[3]; [7],310.3 (34.9) hr · ng/mL
same,"Cmax, Mean (% CV)",[3]; [7],236.6 (65.1) ng/mL
same,"AUCinf, Mean (% CV)",[3]; [8],293.1 (40.9) hr · ng/mL
same,"AUClast, Mean (% CV)",[3]; [8],290.6 (41.3) hr · ng/mL
same,"Cmax, Mean (% CV)",[3]; [8],251.1 (66.7) ng/mL
same,"AUCinf, Mean (% CV)",[3]; [9],238.3 (45.0) hr · ng/mL
same,"AUClast, Mean (% CV)",[3]; [9],236.7 (45.3) hr · ng/mL
same,"Cmax, Mean (% CV)",[3]; [9],291.9 (55.4) ng/mL
same,% GLSM Ratio of AUCinf,[4]; [13],158.20%
same,% GLSM Ratio of AUClast,[4]; [13],156.81%
same,% GLSM Ratio of Cmax,[4]; [13],83.22%
same,% GLSM Ratio of AUCinf,[4]; [14],91.56%
same,% GLSM Ratio of AUClast,[4]; [14],91.62%
same,% GLSM Ratio of Cmax,[4]; [14],95.47%
same,geometric mean ratio of AUCinf (food effect),[4]; bilayer tablet formulation F2,1.58
same,geometric mean ratio of Cmax (food effect),[4]; bilayer tablet formulation F2,0.83
same,exposure following F2 compared with F1 with the F/TAF FDC (F3),[4]; fasted,similar
same,AUC(0-inf),[4]; [15],0.225 µg·h/mL
same,AUC(0-inf),[4]; [16],0.32 µg·h/mL
same,AUC(0-inf),[4]; [17],0.207 µg·h/mL
same,AUC(0-t),[4]; [15],0.224 µg·h/mL
same,AUC(0-t),[4]; [16],0.315 µg·h/mL
same,AUC(0-t),[4]; [17],0.206 µg·h/mL
same,Cmax,[4]; [15],277 ng/mL
same,Cmax,[4]; [16],212 ng/mL
same,Cmax,[4]; [17],253 ng/mL
same,geometric mean ratio of Cmax (food effect),[4]; tablet formulation F1 (codosed with F3),0.85
same,geometric mean ratio of AUCinf (food effect),[4]; tablet formulation F1 codosed with tablet formulation F3,1.75
